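Cells were grown in 96-well plates and exposed to each compound for 48 hours at five concentrations; endpoints were interpolated linearly between bracketing concentrations, or set to the highest concentration if not reached. At the GI50, growth is halved.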 The source made the active and inactive calls. Cut-off read from the data, not from the text of the source: active = GI50 up to about 1.1 µM and inactive = higher.
Tests used:
Test in all cases: DTP human tumour cell line panel, 48 h
ACHN = system: ACHN
BT-549 = system: BT-549
COLO 205 = system: COLO 205
HCT-15 = system: HCT-15
HOP-62 = system: HOP-62
IGROV-1 = system: IGROV-1
LOX IMVI = system: LOX IMVI
MDA-MB-231 = system: MDA-MB-231
MOLT-4 = system: MOLT-4
NCI-H460 = system: NCI-H460
NCI-H522 = system: NCI-H522
NCI/ADR-RES = system: NCI/ADR-RES
OVCAR-3 = system: OVCAR-3
OVCAR-4 = system: OVCAR-4
SF-295 = system: SF-295
SK-MEL-28 = system: SK-MEL-28
SK-MEL-2 = system: SK-MEL-2
SK-OV-3 = system: SK-OV-3
SNB-19 = system: SNB-19

Structure (SMILES)	GI50 (ACHN)	GI50 (BT-549)	GI50 (COLO 205)	GI50 (HCT-15) [µM]	GI50 (HOP-62)	GI50 (IGROV-1)	GI50 (LOX IMVI)	GI50 (MDA-MB-231)	GI50 (MOLT-4)	GI50 (NCI-H460)	GI50 (NCI-H522)	GI50 (NCI/ADR-RES)	GI50 (OVCAR-3)	GI50 (OVCAR-4)	GI50 (SF-295)	GI50 (SK-MEL-28)	GI50 (SK-MEL-2)	GI50 (SK-OV-3)	GI50 (SNB-19)
CC1CNC(c2cccc(-c3nc(-c4cccc(C5=NC(C)CN5)c4)nc(N(C)C)n3)c2)=N1 (stereo not drawn)	3.12 µM (inactive)	3.19 µM (inactive)	1.2 µM (inactive)	8.34	1.08 µM (active)	3.28 µM (inactive)	1.12 µM (inactive)	1.32 µM (inactive)	0.373 µM (active)	1.94 µM (inactive)	0.757 µM (active)	16.5 µM (inactive)	1.53 µM (inactive)	0.771 µM (active)	3.61 µM (inactive)	3.13 µM (inactive)	2.02 µM (inactive)	1.58 µM (inactive)	0.752 µM (active)
O=C(CCOS(=O)(=O)CF)N1CCN(C(=O)CCOS(=O)(=O)CF)CC1	17.1 µM (inactive)	> 100 µM (inactive)	> 80.7 µM (inactive)	> 100	43.2 µM (inactive)	> 69.5 µM (inactive)	16.9 µM (inactive)	> 100 µM (inactive)	3.03 µM (inactive)	5.27 µM (inactive)	31.6 µM (inactive)	> 100 µM (inactive)	> 100 µM (inactive)	> 100 µM (inactive)	32.6 µM (inactive)	> 100 µM (inactive)	> 100 µM (inactive)	> 27.2 µM (inactive)	58.3 µM (inactive)
NC(=O)NC(=O)C1CCCCC1C(=O)O (stereo not drawn)	> 100 µM (inactive)	> 100 µM (inactive)	> 100 µM (inactive)	> 100	> 100 µM (inactive)	> 100 µM (inactive)	> 100 µM (inactive)	> 100 µM (inactive)		> 100 µM (inactive)	> 100 µM (inactive)	> 100 µM (inactive)	> 100 µM (inactive)	> 100 µM (inactive)	> 100 µM (inactive)	> 100 µM (inactive)	> 100 µM (inactive)	> 100 µM (inactive)	> 100 µM (inactive)
C=C(Cl)/C(=C\Br)CCC(Cl)C(C)C.C=C(Cl)/C(=C\Cl)CCC(Cl)C(C)C (stereo not drawn)	16.8 µM (inactive)	15.2 µM (inactive)	26.3 µM (inactive)		18.3 µM (inactive)	14.7 µM (inactive)	1.67 µM (inactive)	16.5 µM (inactive)	6.52 µM (inactive)	18.1 µM (inactive)	4.73 µM (inactive)	27.5 µM (inactive)	16.5 µM (inactive)	16.3 µM (inactive)	18.8 µM (inactive)	17.2 µM (inactive)	13.6 µM (inactive)	22.8 µM (inactive)	17.6 µM (inactive)
CN1CCOC1c1ccccc1O (stereo not drawn)	> 100 µM (inactive)	> 100 µM (inactive)	> 100 µM (inactive)	> 100	> 100 µM (inactive)	> 100 µM (inactive)	> 100 µM (inactive)	> 100 µM (inactive)	> 100 µM (inactive)	> 100 µM (inactive)	> 100 µM (inactive)	> 100 µM (inactive)	> 100 µM (inactive)	> 100 µM (inactive)	> 100 µM (inactive)		> 100 µM (inactive)	> 100 µM (inactive)	> 100 µM (inactive)
CCC1(C)C=Cc2c(cc(OC)c3c(=O)c4ccccc4n(C)c23)O1 (stereo not drawn)	> 10 µM (inactive)	5.4 µM (inactive)	> 10 µM (inactive)	7.23	> 10 µM (inactive)	> 10 µM (inactive)	> 10 µM (inactive)	> 10 µM (inactive)	> 10 µM (inactive)	8 µM (inactive)	> 10 µM (inactive)	> 10 µM (inactive)	9.55 µM (inactive)	9.51 µM (inactive)	3.56 µM (inactive)	9.16 µM (inactive)	> 10 µM (inactive)	> 10 µM (inactive)	> 10 µM (inactive)
Cc1ccc(S(=O)(=O)NC(=O)NC(CCC(N)=O)C(=O)O)cc1 (stereo not drawn)	> 100 µM (inactive)	> 100 µM (inactive)	> 100 µM (inactive)	> 100	> 100 µM (inactive)	> 100 µM (inactive)	> 100 µM (inactive)	> 100 µM (inactive)	> 100 µM (inactive)	> 100 µM (inactive)	> 100 µM (inactive)	> 100 µM (inactive)		> 100 µM (inactive)	> 100 µM (inactive)	> 100 µM (inactive)	> 100 µM (inactive)	> 100 µM (inactive)	> 100 µM (inactive)
CCN(CC)CCCNc1ncc(C)c2c1c1ccc3c(O)cccc3c1n2C	1.8 µM (inactive)	1.89 µM (inactive)	5.52 µM (inactive)	2.74	0.964 µM (active)	1.96 µM (inactive)	1.29 µM (inactive)	1.57 µM (inactive)	0.043 µM (active)	1.02 µM (active)	1.05 µM (active)	2.81 µM (inactive)	3.87 µM (inactive)	1.66 µM (inactive)	1.73 µM (inactive)	9.82 µM (inactive)	12.2 µM (inactive)	4.9 µM (inactive)	1.07 µM (active)
